Results published in the supplement of paper PMC10307832.

What was measured:
Experiment in all cases: relative viability (nuclei count vs DMSO), 5 days (fraction); higher = more cells survive
Axitinib + Olaparib = compound: CNC(=O)c1ccccc1Sc1ccc2c(/C=C/c3ccccn3)n[nH]c2c1 [Axitinib] + O=C(c1cc(Cc2n[nH]c(=O)c3ccccc23)ccc1F)N1CCN(C(=O)C2CC2)CC1 [Olaparib] (partner 8 µM)
Summary of the method: (§1)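 Five library-drug doses in √10 steps were combined with a fixed anchor-drug dose, or a single drug was given alone, by pin tool to lung cancer cell lines in 1536-well plates the day after seeding. Nuclei were stained and counted after 5 days. Relative viability is the nuclei count in treated wells over that in vehicle wells, taken as the median of duplicate plates.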

Bemcentinib + Decitabine = compound: Nc1nc(Nc2ccc3c(c2)CC[C@@H](N2CCCC2)CC3)nn1-c1cc2c(nn1)-c1ccccc1CCC2 [Bemcentinib] + Nc1ncn([C@H]2C[C@H](O)[C@@H](CO)O2)c(=O)n1 [Decitabine] (partner 2 µM)
Summary of the method: as §1

Bemcentinib + Lapatinib = compound: Nc1nc(Nc2ccc3c(c2)CC[C@@H](N2CCCC2)CC3)nn1-c1cc2c(nn1)-c1ccccc1CCC2 [Bemcentinib] + CS(=O)(=O)CCNCc1ccc(-c2ccc3ncnc(Nc4ccc(OCc5cccc(F)c5)c(Cl)c4)c3c2)o1 [Lapatinib] (partner 2 µM)
Summary of the method: as §1

Axitinib + Luminespib = compound: CNC(=O)c1ccccc1Sc1ccc2c(/C=C/c3ccccn3)n[nH]c2c1 [Axitinib] + CCNC(=O)c1noc(-c2cc(C(C)C)c(O)cc2O)c1-c1ccc(CN2CCOCC2)cc1 [Luminespib] (partner 0.01 µM)
Summary of the method: as §1

Row | Cell Line | relative viability (Axitinib + Olaparib; first compound 0.005 µM) | relative viability (Axitinib + Olaparib; first compound 0.01581 µM) | relative viability (Axitinib + Olaparib; first compound 0.05 µM) | relative viability (Axitinib + Olaparib; first compound 0.1581 µM) | relative viability (Axitinib + Olaparib; first compound 0.5 µM) | relative viability (Bemcentinib + Decitabine; first compound 0.04 µM) | relative viability (Bemcentinib + Decitabine; first compound 0.1265 µM) | relative viability (Bemcentinib + Decitabine; first compound 0.4 µM) | relative viability (Bemcentinib + Decitabine; first compound 1.265 µM) | relative viability (Bemcentinib + Decitabine; first compound 4 µM) | relative viability (Bemcentinib + Lapatinib; first compound 0.04 µM) | relative viability (Bemcentinib + Lapatinib; first compound 0.1265 µM) | relative viability (Bemcentinib + Lapatinib; first compound 0.4 µM) | relative viability (Bemcentinib + Lapatinib; first compound 1.265 µM) | relative viability (Bemcentinib + Lapatinib; first compound 4 µM) | relative viability (Axitinib + Luminespib; first compound 0.005 µM) | relative viability (Axitinib + Luminespib; first compound 0.01581 µM) | relative viability (Axitinib + Luminespib; first compound 0.05 µM) | relative viability (Axitinib + Luminespib; first compound 0.1581 µM) | relative viability (Axitinib + Luminespib; first compound 0.5 µM)
1 | NCI-H1666 | 0.741 | 0.756 | 0.7 | 0.765 | 0.728 | 0.618 | 0.872 | 0.722 | 0.592 | 0.632 | 0.668 | 0.813 | 0.599 | 0.649 | 0.606 | 0.974 | 0.975 | 1.01 | 1.03 | 0.957
2 | NCI-H1734 | 0.593 | 0.571 | 0.62 | 0.585 | 0.747 | 0.401 | 0.533 | 0.595 | 0.472 | 0.447 | 1.11 | 1.08 | 1.12 | 1.03 | 1.04 | 0.19 | 0.221 | 0.212 | 0.2 | 0.191
3 | NCI-H1755 | 0.897 | 0.867 | 0.852 | 0.847 | 0.852 | 0.724 | 0.671 | 0.726 | 0.674 | 0.718 | 1.11 | 1.23 | 1.01 | 0.996 | 1.01 | 0.527 | 0.63 | 0.533 | 0.364 | 0.428
4 | NCI-H1792 | 0.458 | 0.445 | 0.576 | 0.485 | 0.651 | 0.582 | 0.741 | 0.594 | 0.454 | 0.63 | 0.899 | 0.855 | 1.11 | 0.969 | 0.896 | 0.555 | 0.34 | 0.325 | 0.417 | 0.418
5 | NCI-H1793 | 1 | 0.715 | 0.874 | 0.793 | 1.05 | 0.475 | 0.495 | 0.5 | 0.549 | 0.586 | 0.488 | 0.621 | 0.693 | 0.582 | 0.75 | 0.148 | 0.23 | 0.16 | 0.187 | 0.169
6 | NCI-H1915 | 0.28 | 0.255 | 0.243 | 0.234 | 0.284 | 0.24 | 0.25 | 0.255 | 0.252 | 0.257 | 0.958 | 1.07 | 0.979 | 1.09 | 1.05 | 0.787 | 0.795 | 0.902 | 0.84 | 0.861
7 | NCI-H1944 | 0.469 | 0.397 | 0.384 | 0.402 | 0.427 | 0.413 | 0.39 | 0.443 | 0.443 | 0.417 | 0.794 | 0.909 | 0.817 | 0.883 | 0.887 | 0.755 | 0.726 | 0.717 | 0.738 | 0.769
8 | NCI-H1975 | 0.822 | 0.816 | 0.859 | 0.774 | 0.805 | 0.336 | 0.384 | 0.394 | 0.374 | 0.459 | 0.962 | 1.02 | 0.894 | 0.79 | 0.853 | 0.244 | 0.337 | 0.192 | 0.198 | 0.257
9 | NCI-H1993 | 1 | 1.12 | 1.04 | 1.01 | 1.04 | 0.541 | 0.49 | 0.627 | 0.577 | 0.68 | 0.695 | 0.757 | 0.847 | 0.8 | 0.885 | 1.04 | 0.918 | 0.949 | 0.881 | 0.823
10 | NCI-H2009 | 0.724 | 0.686 | 0.698 | 0.722 | 0.819 | 0.404 | 0.353 | 0.492 | 0.399 | 0.434 | 0.93 | 1.09 | 0.956 | 0.954 | 0.957 | 1.11 | 1.12 | 1.02 | 1.07 | 1.16
11 | NCI-H2023 | 0.528 | 0.487 | 0.495 | 0.555 | 0.574 | 0.204 | 0.264 | 0.233 | 0.282 | 0.224 | 0.739 | 0.866 | 0.868 | 0.808 | 0.874 | 0.76 | 0.942 | 0.752 | 0.745 | 0.97
12 | NCI-H2085 | 0.775 | 0.769 | 0.807 | 0.758 | 0.787 | 0.539 | 0.583 | 0.498 | 0.551 | 0.554 | 0.625 | 0.805 | 0.756 | 0.74 | 0.721 | 0.451 | 0.389 | 0.404 | 0.502 | 0.415
13 | NCI-H2087 | 0.741 | 0.503 | 0.642 | 0.549 | 0.661 | 0.295 | 0.318 | 0.281 | 0.265 | 0.302 | 0.992 | 0.951 | 1.08 | 1.01 | 1.01 | 0.162 | 0.202 | 0.177 | 0.176 | 0.172
14 | NCI-H2126 | 0.913 | 0.907 | 0.884 | 0.917 | 0.944 | 0.582 | 0.588 | 0.601 | 0.634 | 0.557 | 0.791 | 0.768 | 0.8 | 0.814 | 0.842 | 0.82 | 0.921 | 0.963 | 0.876 | 0.912
15 | NCI-H2170 | 0.693 | 0.616 | 0.569 | 0.595 | 0.671 | 0.457 | 0.48 | 0.463 | 0.519 | 0.479 | 0.274 | 0.267 | 0.295 | 0.251 | 0.273 | 0.718 | 0.639 | 0.743 | 0.647 | 0.688
16 | NCI-H2347 | 0.592 | 0.629 | 0.575 | 0.65 | 0.557 | 0.653 | 0.573 | 0.665 | 0.678 | 0.639 | 1.01 | 0.928 | 0.977 | 0.955 | 0.9 | 0.299 | 0.432 | 0.948 | 0.323 | 0.505
